Tested on: primary cultures of adult porcine RPE cells
Assay: RPE cellular model of phototoxicity induced by A2E treatment followed by blue radiation illumination; cell survival
Format: cell-based
Settings: for protective effect (cell survival vs control without A2E): concentrations of 0.1 and 1 μM, 48 h treatment, last 24 h with A2E, then blue light; for protection, percentage of survival compared to the control without A2E: 10 μM
Experimental: Given the very probable role of this mechanism in the development of AMD, the inventors used an in vitro cellular model of induced phototoxicity by the association of a treatment with A2E and illumination by blue light on RPE primary cell cultures wherein cell survival was measured. This model was developed by the Institute of Vision and allows for screening molecules aimed to discover new candidates for the treatment of dry AMD.
To test the photoprotective effect of the test substances, the inventors used a cellular model of induced phototoxicity by treatment with A2E followed by illumination with blue radiation. This model was produced from primary cultures of adult porcine RPE cells. Cell survival was determined by the ratio between the number of living cells and the total number of cells (alive+dead, respectively quantified using specific staining). Image acquisition was performed using a fluorescence microscope controlled by Metamorph software and quantifications were made by processing images acquired by a program dedicated quantification. The experiments were performed in 96-well microplates in quadruplicate and the experiment was repeated at least four times. Cells were treated for 48 hours with these compounds, the last 24 hours in the presence of A2E before induction of phototoxicity. Three concentrations (0.1, 1 and 10 μM) were tested for each compound. Some compounds were further tested at 20 μM to achieve a range of concentrations.

CC(/C=C/C=C(\C)C(=O)O)=C\C=C\C=C(C)\C=C\C=C(/C)C(=O)O [Crocetin]
protective effect (cell survival vs control without A2E): did not show a protective effect

Oc1cc(O)c2cc(O)c(-c3ccc(O)c(O)c3)[o+]c2c1 [Cyanidin]
protection, percentage of survival compared to the control without A2E: ~87%

O=c1oc2c(O)c(O)cc3c(=O)oc4c(O)c(O)cc1c4c23 [Ellagic acid]
protection, percentage of survival compared to the control without A2E: ~68%
protection against phototoxicity (in words) (20 μM): protection similar to that measured at 10 μM
protective effect (cell survival vs control without A2E): did not show a protective effect

CC1=C[C@H](O)CC(C)(C)[C@H]1/C=C/C(C)=C/C=C/C(C)=C/C=C/C=C(C)/C=C/C=C(C)/C=C/C1=C(C)C[C@@H](O)CC1(C)C [Lutein, reference compound]
protective effect (cell survival vs control without A2E): did not show a protective effect

O=C1C[C@@H](c2ccc(O)cc2)Oc2cc(O)cc(O)c21 [Naringenin]
protective effect (cell survival vs control without A2E): did not show a protective effect

O=c1cc(-c2ccc(O)c(O)c2)oc2c([C@@H]3O[C@H](CO)[C@@H](O)[C@H](O)[C@H]3O)c(O)cc(O)c12 [Orientin]
protective effect (cell survival vs control without A2E): did not show a protective effect

Oc1ccc(C=Cc2cc(O)cc(O)c2)cc1 [Resveratrol, reference compound]
protective effect (cell survival vs control without A2E): did not show a protective effect

CC1=C(/C=C/C(C)=C/C=C/C(C)=C/C=C/C=C(C)/C=C/C=C(C)/C=C/C2=C(C)C[C@@H](O)CC2(C)C)C(C)(C)C[C@H](O)C1 [Zeaxanthin, reference compound]
protective effect (cell survival vs control without A2E): did not show a protective effect

— US20170354638A1, “BIXA ORELLANA COMPOSITION FOR THE TREATMENT MACULAR DEGENERATION” (BIOPHYTIS, priority 2011, published 2017)
